Reference: US20220143026A1, “TRIPLE COMBINATION TO TREAT B-CELL MALIGNANCIES” (TG Therapeutics, Inc., priority 2020, published 2022)
Read-outs that look alike come from different tables or passages of the source. Marks after values point to notes of the source that are not given here.

Experiments:
[1] = Phase 1/1b clinical trial, safety; conditions: for treatment discontinuation: Death: CLL, N = 20, death due to SARS-CoV-2 infection
BTK [2] = biological target: T1, BTK (Homo sapiens, UniProt Q06187); conditions: read-out: kinase inhibition IC50 against BTK; cited from earlier work
JEKO cells = conditions: cited from earlier work
B-NHL cell lines [3] = conditions: cited from earlier work
[4] = Phase 1/1b clinical trial, pharmacokinetics; assay type: in vivo, human; conditions: patients
[5] = tested on: follicular lymphoma (FL) DOHH-2 cell line; conditions: read-out: IC50, inhibition of growth; cited from earlier work
BTK [6] = biological target: T1, BTK; experiment: Phase 1/1b clinical trial, pharmacodynamics (BTK occupancy); assay type: in vivo; set-up: endogenous in cells
[7] = tested on: mantle cell lymphoma (MCL) Mino cell line; conditions: read-out: IC50, inhibition of growth; cited from earlier work
DLBCL SU-DHL-6 cell line = conditions: read-out: IC50, inhibition of growth; cited from earlier work
EGFR = EGFR (Homo sapiens, UniProt P00533); conditions: cited from earlier work
B-NHL cell lines [8] = conditions: cited from earlier work; remark: listed apart in the source
BTK [9] = biological target: T2, BTK (Mus musculus, UniProt P35991); conditions: mice, single dose of TG-1701 at 12.5 mg/kg; cited from earlier work
T2 construct: from tissue; host or cells: mouse spleen

[10] = tested on: SU-DHL-6 (GCB-DLBCL), Mino (MCL), and OCI-Ly10 (ABC-DLBCL) xenograft models; conditions: SU-DHL-6, Mino, OCI-Ly10 xenografts; cited from earlier work
B-cell malignancies = experiment: Phase 1/1b clinical trial, efficacy (response)
Experimental: All patients were treated until disease progression, unacceptable toxicity, or investigator/patient decision to withdraw.
All patients were treated until disease progression, unacceptable toxicity, or investigator/patient decision to withdraw study consent.
Evaluable patients had at least one response assessment.

[11] = human, in vivo
[12] = tested on: IgM-activated BCR pathway; conditions: DOHH-2 cells; cited from earlier work
[13] = comparison of atrial fibrillation adverse events between BTK inhibitors; assay type: in vivo, human; conditions: N=106
[14] = ibrutinib n=263, acalabrutinib n=266; cited from earlier work
[15] = tested on: relapsed and refractory hematologic malignancies; conditions: cited from earlier work
[16] = in vivo; cited from earlier work
CD20 antigen = biological target: T3, CD20 antigen (Homo sapiens, UniProt P11836); conditions: cited from earlier work
T3 sequence (P11836 1-297): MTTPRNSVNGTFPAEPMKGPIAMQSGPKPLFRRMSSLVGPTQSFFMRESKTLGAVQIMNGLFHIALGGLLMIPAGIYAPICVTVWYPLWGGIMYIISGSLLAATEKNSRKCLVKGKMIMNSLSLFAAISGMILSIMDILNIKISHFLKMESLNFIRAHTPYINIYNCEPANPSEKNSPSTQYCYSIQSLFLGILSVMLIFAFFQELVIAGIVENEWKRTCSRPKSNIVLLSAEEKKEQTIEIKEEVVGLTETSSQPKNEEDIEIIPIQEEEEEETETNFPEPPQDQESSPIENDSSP

[17] = monotherapy 200 mg, CLL cohort, N = 20
[18] = monotherapy 200 mg, MCL cohort, N = 18
[19] = monotherapy 200 mg, WM cohort, N = 19
[20] = monotherapy dose escalation 100-400 mg, N = 23
[21] = patients with relapsed or refractory hematologic malignancies

T1 sequence (Q06187 whole entry): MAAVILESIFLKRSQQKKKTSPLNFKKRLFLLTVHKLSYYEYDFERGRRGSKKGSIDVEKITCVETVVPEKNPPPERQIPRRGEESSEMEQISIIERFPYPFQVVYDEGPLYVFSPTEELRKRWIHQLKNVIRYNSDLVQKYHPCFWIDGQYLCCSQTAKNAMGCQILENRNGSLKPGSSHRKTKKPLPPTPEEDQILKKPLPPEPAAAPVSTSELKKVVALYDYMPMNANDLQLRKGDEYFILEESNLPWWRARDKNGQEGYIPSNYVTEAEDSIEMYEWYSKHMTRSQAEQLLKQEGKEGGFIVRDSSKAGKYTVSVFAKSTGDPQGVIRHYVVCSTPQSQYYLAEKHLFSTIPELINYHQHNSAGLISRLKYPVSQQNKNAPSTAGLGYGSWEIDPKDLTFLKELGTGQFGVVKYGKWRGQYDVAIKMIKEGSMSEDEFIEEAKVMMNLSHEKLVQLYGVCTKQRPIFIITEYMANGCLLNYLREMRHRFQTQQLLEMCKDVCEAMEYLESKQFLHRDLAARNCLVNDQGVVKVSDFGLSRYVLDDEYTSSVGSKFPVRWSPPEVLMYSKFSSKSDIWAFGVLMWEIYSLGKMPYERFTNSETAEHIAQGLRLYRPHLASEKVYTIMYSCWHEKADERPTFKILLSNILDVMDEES
Sequence of EGFR (P00533 25-1210, species assumed): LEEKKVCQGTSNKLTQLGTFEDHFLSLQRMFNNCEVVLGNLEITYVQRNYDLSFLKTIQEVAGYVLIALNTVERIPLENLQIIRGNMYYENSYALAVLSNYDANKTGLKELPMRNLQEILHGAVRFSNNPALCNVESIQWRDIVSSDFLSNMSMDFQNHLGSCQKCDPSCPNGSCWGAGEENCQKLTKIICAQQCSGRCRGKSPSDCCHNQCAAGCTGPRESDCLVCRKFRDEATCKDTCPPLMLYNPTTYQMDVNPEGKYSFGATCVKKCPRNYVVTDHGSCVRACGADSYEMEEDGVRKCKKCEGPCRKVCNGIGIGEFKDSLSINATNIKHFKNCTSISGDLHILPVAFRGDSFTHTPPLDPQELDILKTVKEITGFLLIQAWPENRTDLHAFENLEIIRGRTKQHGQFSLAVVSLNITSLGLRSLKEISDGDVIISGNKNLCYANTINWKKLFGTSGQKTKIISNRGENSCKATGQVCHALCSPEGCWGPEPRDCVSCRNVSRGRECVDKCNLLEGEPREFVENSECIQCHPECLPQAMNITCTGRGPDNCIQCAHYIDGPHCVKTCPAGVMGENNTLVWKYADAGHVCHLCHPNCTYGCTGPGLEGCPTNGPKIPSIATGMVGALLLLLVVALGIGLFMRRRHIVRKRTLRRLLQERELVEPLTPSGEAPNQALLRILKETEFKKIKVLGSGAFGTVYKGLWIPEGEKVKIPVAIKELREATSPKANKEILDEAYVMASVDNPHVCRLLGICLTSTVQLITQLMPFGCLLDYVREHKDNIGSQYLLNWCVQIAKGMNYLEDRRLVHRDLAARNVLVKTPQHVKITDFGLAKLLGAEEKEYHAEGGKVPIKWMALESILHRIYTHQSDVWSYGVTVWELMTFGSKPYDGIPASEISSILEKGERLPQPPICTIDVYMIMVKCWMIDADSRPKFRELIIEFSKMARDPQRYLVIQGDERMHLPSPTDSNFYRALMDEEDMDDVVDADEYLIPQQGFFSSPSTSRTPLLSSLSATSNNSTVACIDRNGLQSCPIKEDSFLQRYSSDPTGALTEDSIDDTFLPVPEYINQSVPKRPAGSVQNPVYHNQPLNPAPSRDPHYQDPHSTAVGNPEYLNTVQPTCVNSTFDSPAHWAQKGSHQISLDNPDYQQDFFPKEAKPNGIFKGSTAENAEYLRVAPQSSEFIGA
T2 sequence (P35991 whole entry): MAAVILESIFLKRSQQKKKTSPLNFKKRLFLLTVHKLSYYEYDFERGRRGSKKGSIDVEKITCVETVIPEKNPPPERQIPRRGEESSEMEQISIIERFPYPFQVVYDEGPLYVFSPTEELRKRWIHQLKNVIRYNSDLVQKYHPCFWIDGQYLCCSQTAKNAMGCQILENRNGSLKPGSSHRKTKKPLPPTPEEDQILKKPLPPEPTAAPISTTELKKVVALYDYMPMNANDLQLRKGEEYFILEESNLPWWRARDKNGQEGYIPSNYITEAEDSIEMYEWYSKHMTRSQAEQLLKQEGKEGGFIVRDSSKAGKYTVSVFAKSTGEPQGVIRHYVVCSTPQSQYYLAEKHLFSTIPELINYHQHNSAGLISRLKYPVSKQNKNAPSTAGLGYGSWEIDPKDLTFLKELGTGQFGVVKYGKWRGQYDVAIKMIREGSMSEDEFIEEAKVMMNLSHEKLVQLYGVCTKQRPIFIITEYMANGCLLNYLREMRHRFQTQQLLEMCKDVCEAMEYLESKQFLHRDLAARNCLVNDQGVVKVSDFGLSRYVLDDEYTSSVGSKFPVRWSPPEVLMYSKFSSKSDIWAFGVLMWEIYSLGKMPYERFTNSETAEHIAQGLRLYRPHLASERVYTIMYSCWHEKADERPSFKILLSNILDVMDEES

For `CC#CC(=O)N1CC[C@@H](n2cc(-c3ccc(Oc4c(F)cccc4F)cc3)c3c(N)n[nH]c(=O)c32)C1` [TG-1701, (R)-4-amino-1-(1-(but-2-ynoyl)pyrrolidin-3-yl)-3-(4-(2,6-difluorophenoxy)phenyl)-1,6-dihydro-7H-pyrrolo[2,3-d]pyridazin-7-one], which “treatment discontinuation: Death” value ([1]; dose-expansion 200 mg) is on record?
Its value is 1^‡ N(%).

What about the “treatment discontinuation: Death” value ([1]; dose-expansion 300 mg) of the same molecule?
Its value is 2^‡ N(%).

What about the IC50 (BTK [2]) of the same molecule?
Its IC50 is 3 nM.

And the CXCL12-dependent migration (JEKO cells)?
The CXCL12-dependent migration was “blocked”.

And the “IgM-dependent CD69 expression” value (JEKO cells)?
The value was “blocked”.

What about the “adhesion of JEKO cells to VCAM-1” value (JEKO cells) of the same molecule?
Its value is “blocked”.

What about the “FcγR-driven ADCC and ADCP activity of anti-CD20 antibodies (e.g., ublituximab)” value (B-NHL cell lines [3]) of the same molecule?
Its value is “does not impair”.

What about the “ADCC activity of ublituximab in the presence of the BTK inhibitor” value (B-NHL cell lines [3]; compared to monotherapy ADCC activity of ublituximab, across cell lines) of the same molecule?
Its value is “not significantly different”.

And the “kinetics, dose proportionality of exposure” value [4]?
The value was “Linear kinetics”.

What about the IC50 [5] of the same molecule?
Its IC50 is 369 nM.

And the BTK occupancy (BTK [6]; 100 mg QD)?
The BTK occupancy was “full BTK occupancy”.

What about the “saturation of the BTK” value (BTK [6]; all dose levels studied) of the same molecule?
Its value is ~100%.

And the receptor occupancy at 100 mg (BTK [6]; human, 100 mg QD)?
The receptor occupancy at 100 mg was ≥ 99%.

What about the IC50 [7] of the same molecule?
Its IC50 is 449 nM.

And the IC50 (DLBCL SU-DHL-6 cell line)?
The IC50 was 313 nM.

What about the IC50 (EGFR) of the same molecule?
Its IC50 is 270 nM.

What about the “ADCP activity of rituximab in the presence of the BTK inhibitor” value (B-NHL cell lines [8]) of the same molecule?
The value was “conserved to a greater extent”.

And the “ADCP activity of ublituximab in combination with the BTK inhibitor” value (B-NHL cell lines [8]; increasing concentrations)?
The value was “conserved at all dose levels tested”.

And the “BTK occupancy in the spleen” value (BTK [9])?
The value was “completely occupied”.

And the anti-tumor efficacy [10]?
The anti-tumor efficacy was “potent anti-tumor activity equivalent to or greater than ibrutinib”.

What about the “hematologic variables in patients with anemia and thrombocytopenia at baseline” value (B-cell malignancies; CLL 200-mg and 300-mg cohorts) of the same molecule?
Its value is “sustained improvement”.

What about the “lymphocytosis resolution to normal or less than 50% of baseline” value (B-cell malignancies; CLL monotherapy patients) of the same molecule?
The value was 57.1%.

And the ORR (B-cell malignancies; CLL patients evaluable for response, Example 2)?
Its ORR is 95.6%.

And the “median duration of response” value (B-cell malignancies; CLL patients, Example 2)?
The value was “has not been reached”.

And the “treatment discontinuation: Progression by iwCLL criteria” value (B-cell malignancies; CLL, dose-escalation 100-400 mg, N = 6)?
Its value is 1 N(%).

And the “complete responses (CR) confirmed” value (B-cell malignancies; TG-1701 monotherapy)?
Its value is “No complete responses”.

What about the ORR (B-cell malignancies; [17]) of the same molecule?
Its ORR is 95%.

And the Stable disease (B-cell malignancies; [17])?
Its Stable disease is 1 (5) N (%).

And the Partial response (B-cell malignancies; monotherapy 200 mg, CLL cohort, N = 20, includes PR and PR-L)?
The Partial response was 19 (95)^b N (%).

And the ORR (B-cell malignancies; [18])?
Its ORR is 50%.

What about the Partial response (B-cell malignancies; [18]) of the same molecule?
The Partial response was 9 (50) N (%).

What about the Progressive disease (B-cell malignancies; [18]) of the same molecule?
The Progressive disease was 3 (17) N (%).

What about the Stable disease (B-cell malignancies; [18]) of the same molecule?
Its Stable disease is 6 (33) N (%).

And the Minor response (B-cell malignancies; [19])?
Its Minor response is 6 (32) N (%).

And the ORR (B-cell malignancies; [19])?
The ORR was 95%.

And the Partial response (B-cell malignancies; [19])?
The Partial response was 12 (63) N (%).

And the Progressive disease (B-cell malignancies; [19])?
The Progressive disease was 1 (5) N (%).

What about the Minor response (B-cell malignancies; [20]) of the same molecule?
Its Minor response is 1 (4) N (%).

What about the ORR (B-cell malignancies; [20]) of the same molecule?
Its ORR is 52%.

What about the Partial response (B-cell malignancies; [20]) of the same molecule?
Its Partial response is 11 (48) N (%).

And the Progressive disease (B-cell malignancies; [20])?
Its Progressive disease is 3 (13) N (%).

What about the Stable disease (B-cell malignancies; [20]) of the same molecule?
The Stable disease was 8 (35) N (%).

And the “G≥3 neutropenia” value [11]?
Its value is 8%.

And the “changes between pre- and on-treatment diastolic blood pressure nor QTc” value [11]?
The value was “No significant changes”.

What about the “patients with dose reduction due to treatment-related adverse events” value [11] of the same molecule?
The value was “Four”.

And the “treatment discontinuations due to adverse events” value [11]?
The value was “no treatment discontinuations due to adverse events”.

What about the ventricular tachyarrhythmia [11] of the same molecule?
The ventricular tachyarrhythmia was “No cases”.

What about the “IgM-activated BCR pathway: phosphorylation of BTK, PLCy2, and ERK1/2” value [12] of the same molecule?
Its value is “inhibited”.

What about the “% incidence of any grade Afib” value [13] of the same molecule?
Its value is 3.8%.

And the “% incidence of atrial fibrillation (Afib), Grade 3 or greater” value [13]?
The value was 1.9%.

With `CC#CC(=O)N1CCC[C@H]1c1nc(-c2ccc(C(=O)Nc3ccccn3)cc2)c2c(N)nccn12` [acalabrutinib] as the molecule, how does the “% incidence of any grade Afib” value [14] read?
The value was 9%.

And the “% incidence of atrial fibrillation (Afib), Grade 3 or greater” value [14]?
The value was 4.5%.

With `CC(C)Oc1ccc(-c2nn([C@@H](C)c3oc4ccc(F)cc4c(=O)c3-c3cccc(F)c3)c3ncnc(N)c23)cc1F` [umbralisib, (S)-2-(1-(4-amino-3-(3-fluoro-4-isopropoxyphenyl)-1H-pyrazolo[3,4-d]pyrimidin-1-yl)ethyl)-6-fluoro-3-(3-fluorophenyl)-4H-chromen-4-one] as the molecule, how does the “patients with dose reduction of umbralisib due to G3-4 ALT elevation” value ([1]; combination arm, dose escalation) read?
Its value is 3 patients.

What about the “doses with signs of clinical activity” value ([15]; in vivo) of the same molecule?
Its value is ≥ 800 mg each day.

And the hepatic toxicity [15, 21]?
The hepatic toxicity was “no reported hepatic toxicity”.

And the tolerability [15, 21]?
Its tolerability is “well-tolerated”.

For `CC[C@H](Nc1ncnc2[nH]cnc12)c1nc2cccc(F)c2c(=O)n1-c1ccccc1` [Idelalisib], which “immune mediated colitis, grade 3” value [16] is on record?
Its value is ≥ 5%.

And the “pneumonitis, grade 3” value [16]?
The value was ≥ 4%.

And the “transaminitis, grade 3” value [16]?
The value was ≥ 8%.

B1: Ublituximab: chimeric monoclonal antibody targeting a unique epitope on the CD20 antigen, glycoengineered for enhanced affinity for Fcγ RIIIa receptors (antibody, V domains shown)
VH: QAYLQQSGAELVRPGASVKMSCKASGYTFTSYNMHWVKQTPRQGLEWIGGIYPGNGDTSYNQKFKGKATLTVGKSSSTAYMQLSSLTSEDSAVYFCARYDYNYAMDYWGQGTSVTVSS
VL: QIVLSQSPAILSASPGEKVTMTCRASSSVSYMHWYQQKPGSSPKPWIYATSNLASGVPARFSGSGSGTSYSFTISRVEAEDAATYYCQQWTFNPPTFGGGTRLEIK
modifications: Ublituximab Variable heavy chain; Ublituximab Variable light chain
With B1 as the molecule, how does the “ADCC activity compared with rituximab and ofatumab” value (CD20 antigen) read?
The value was “greater”.
